One assay concerns E. coli ATCC 25922. Description: Minimum inhibitory concentration (MIC) assay, broth microdilution. The class given is cell-based. The note with it: Escherichia coli, ATCC25922, Mueller-Hinton II broth, 37° C., 18 to 24 hours, lowest concentration that inhibited visible growth. As for the experimental part: (§1) The antimicrobial activity of the compounds of the invention may be evaluated by a number of methods, including the following visual minimum inhibitory concentration (MIC) assay. This assay determines the minimum concentration of compound required to inhibit growth of a bacterial strain. Minimum Inhibitory Concentration (MIC) Assay Whole-cell antibacterial activity is determined by broth microdilution using conditions recommended by the NCCLS (see National Committee for Clinical Laboratory Standards. 2001. Performance standards for antimicrobial susceptibility testing: 11th informational supplement. Vol. 21, no. 1, M100-S11. National Committee for Clinical Laboratory Standards, Wayne, Pa.). Test compounds are dissolved in DMSO and diluted 1:50 in Mueller-Hinton II broth (Becton-Dickinson) to produce a 256 μg/ml stock solution. In a 96-well microtiter plate, the compound solution is serially two-fold diluted in Mueller-Hinton II broth. After the compounds are diluted, a 50 μl aliquot of the test organism (˜1×10^6 cfu/mL) is added to each well of the microtiter plate. The final test concentrations ranges from 0.125-128 μg/mL. Inoculated plates are incubated in ambient air at 37° C. for 18 to 24 hours. The organisms selected for testing included laboratory strains S. aureus ATCC 29213 and E. coli ATCC 25922 (strains purchased from American Type Culture Collection, Manassas, Va.). The minimum inhibitory concentration (MIC) is determined as the lowest concentration of compound that inhibited visible growth of the test organism.

The next assay concerns S. aureus ATCC 29213. The assay is described as above. The format is cell-based. The note with it: Staphylococcus aureus, ATCC29213, Mueller-Hinton II broth, 37° C., 18 to 24 hours, lowest concentration that inhibited visible growth. As for the experimental part: as §1

Our source for the MIC values is patent publication US20060100215A1, “8A,9-dihydro-4aH-isothiazolo[5,4-b]quinoline-3,4-diones and related compounds as anti-infective agents” (priority 2004, published 2006).

Values after ≈ are worked out from the molar mass of the structure shown.

As usually defined, the MIC is the smallest concentration in the dilution series that meets the test's criterion for growth inhibition. Low readings indicate a more susceptible organism, high ones a less susceptible organism. As to `CO/N=C1\CN(c2cc3c(cc2F)c(=O)c2c(=O)[nH]sc2n3C2CC2)CC1CN` (stereo not drawn) [Compound 13], the MIC with E. coli ATCC 25922 was less than 0.05 µg/mL; in the assay with S. aureus ATCC 29213, 0.05 µg/mL (≈ 0.12 µM).
For `CO/N=C1\CN(c2cc3c(cc2F)c(=O)c2c(=O)[nH]sc2n3C2CC2)CC1(C)CN` (stereo not drawn) [Compound 27] the same measures were less than 0.05 µg/mL and less than 0.05 µg/mL.
On to `CON=C1CCN(c2cc3c(cc2F)c(=O)c2c(=O)[nH]sc2n3C2CC2)CC1` [Compound 32, 9-Cyclopropyl-6-fluoro-7-(4-methoxyimino-piperidin-1-yl)-9H-isothiazolo[5,4-b]quinoline-3,4-dione], for which the MIC in the assay on E. coli ATCC 25922 and against S. aureus ATCC 29213 was less than 0.05 µg/mL in each case.
Consider `CO/N=C1\CN(c2c(F)cc3c(=O)c4c(=O)[nH]sc4n(C4CC4)c3c2OC)CC1CN` (stereo not drawn) [Compound 39, 7-(3-Aminomethyl-4-methoxyimino-pyrrolidin-1-yl)-9-cyclopropyl-6-fluoro-8-methoxy-9H-isothiazolo[5,4-b]quinoline-3,4-dione], for which the MIC with E. coli ATCC 25922 was 0.125 µg/mL (≈ 0.279 µM); against S. aureus ATCC 29213, less than 0.05 µg/mL.
In the same order, the values of `CO/N=C1\CN(c2cc3c(cc2F)c(=O)c2c(=O)[nH]sc2n3C2CC2)CC1CO` (stereo not drawn) [Compound 41, 9-Cyclopropyl-6-fluoro-7-(3-hydroxymethyl-4-methoxyimino-pyrrolidin-1-yl)-9H-isothiazolo[5,4-b]quinoline-3,4-dione] are less than 0.1 µg/mL and less than 0.05 µg/mL.
For `CO/N=C1\CN(c2nc3c(cc2F)c(=O)c2c(=O)[nH]sc2n3C2CC2)CC1CN` (stereo not drawn) [Compound 42, 7-(3-Aminomethyl-4-methoxyimino-pyrrolidin-1-yl)-9-cyclopropyl-6-fluro-9H-1-thia-2,8,9-triaza-cyclopenta[b]naphtalene-3,4-dione] the same measures were less than 0.125 µg/mL and less than 0.1 µg/mL.
